Assay results from patent US5852191A, “Rigidized monomethine cyanines” (Carnegie Mellon University, priority 1995, dated 1998).
Like-named read-outs stand apart in the source and are kept apart here. Values belong to the compound of their own block, whether it stands above or below them.

Assays:
[1] = Resistance to photodegradation (500 watt mercury vapor lamp; optical density monitored); type: physicochemical; conditions: for Red shift at the maximum wavelength / Resistance to photofading compared with the Coumarin dyes: dichloromethane; for Photofading rate compared with the corresponding Coumarin compound: methanol, 500 watt mercury vapor lamp
Source text: The resistance to photodegradation of the compounds of Examples A and B in methanol and dichloromethane was also investigated and was compared with photofading rates of certain Coumarin dyes. A degassed solution of each dye in a quartz cuvette was illuminated with a 500 watt mercury vapor lamp from a distance of 4 inches. The solution optical density at maximum wavelength was monitored as a function of time.

[2] = Relative fluorescence intensities of the compounds of Examples A and B in a variety of solvents (Table 4); type: physicochemical
Source text: See M. T. Ramos et al., Heterocycles, Vol. 29, p. 165 (1989).

[3] = Qualitative solubility of the compounds of Examples A and B (Table 3); type: physicochemical; conditions: applies to either dye compound
Source text: (§1) The observed absorption maxima, molar extinction coefficients, emission maxima and qualitative solubility data for the boron-rigidized complexes of Examples A and B are provided in Table 3.

[4] = Absorption/emission spectra and molar extinction coefficients of the compounds of Examples A and B in solvents (Table 3); type: physicochemical; conditions: for Shape of emission spectrum relative to absorption spectrum: FIG. 3 and FIG. 4; for Stokes shift: solvents of Table 3
Source text: as §1

[5] = Literature spectral properties of prior art fluorescent dyes; type: physicochemical
[6] = Absorptive and emissive wavelength maxima and fluorescence of the compounds of Examples C to I; type: physicochemical; conditions: for Maximum absorptive wavelength / Maximum emissive wavelength: measured in methanol; for Fluorescence (in words): qualitative, methanol where stated
[7] = Dimer formation of dye by UV spectrum on thin glass slide; type: physicochemical
[8] = cited from earlier work; for RI (relative intensity): 1.00 = intensity of the dye in methanol
[9] = cited from earlier work
[10] = Relative fluorescence of boron-rigidized vs unrigidized dye in methanol (FIG. 2); type: physicochemical; conditions: excited at 348 nm, vs bis-benzoxazolylmethene hydrochloride
Source text: The present inventors have determined that the rigidization of the basic monomethine cyanine structure increase the quantum efficiency of the dye molecules as much as 5 to 20 times. Thus, the boron-rigidized dyes of the present invention are unusually fluorescent compared with nonrigidized cyanine dye molecules. The present invention thus provides a method for increasing the fluorescence of dyes by rigidizing monomethine cyanine compounds with a boron bridge. Rigidization increase the planarity of the compound, and the fluorescence intensity.

Compound: F[B-]1(F)N2C(=Cc3sc4ccccc4[n+]31)Sc1ccccc12 [Example A, Bis-benzothiazolylmethene Borondifluoride]
Red shift at the maximum wavelength [1]: approximately 12 nm
Resistance to photofading compared with the Coumarin dyes [1]: more resistant to photofading than the Coumarin dyes
Photofading rate compared with the corresponding Coumarin compound [1]: faded somewhat faster
Relative fluorescence intensity ([2]; Acetonitrile): 0.89
Relative fluorescence intensity ([2]; Chloroform): 0.91
Relative fluorescence intensity ([2]; Ethyl Acetate): 0.97
Relative fluorescence intensity ([2]; Methanol): 0.89
Relative fluorescence intensity ([2]; Toluene): 0.81
Solubility data (qualitative) ([3]; Acetonitrile): sol.
Solubility data (qualitative) ([3]; Chloroform): sol.
Solubility data (qualitative) ([3]; Ethanol): sparingly
Solubility data (qualitative) ([3]; Ethyl Acetate): sol.
Solubility data (qualitative) ([3]; Methanol): sparingly
Solubility data (qualitative) ([3]; Toluene): sol.
Logarithm of the Extinction coefficient ([4]; Acetonitrile): 4.97 M^-1 cm^-1
Max. absorption wavelength ([4]; Acetonitrile): 418 nm
Max. emission wavelength ([4]; Acetonitrile): 423 nm
Logarithm of the Extinction coefficient ([4]; Chloroform): 4.97 M^-1 cm^-1
Max. absorption wavelength ([4]; Chloroform): 420 nm
Max. emission wavelength ([4]; Chloroform): 425 nm
Max. absorption wavelength ([4]; Ethanol): 418 nm
Max. emission wavelength ([4]; Ethanol): 423 nm
Logarithm of the Extinction coefficient ([4]; Ethyl Acetate): 4.98 M^-1 cm^-1
Max. absorption wavelength ([4]; Ethyl Acetate): 418 nm
Max. emission wavelength ([4]; Ethyl Acetate): 423 nm
Shape of emission spectrum relative to absorption spectrum [4]: mirrors its absorption spectrum
Max. absorption wavelength ([4]; Methanol): 418 nm
Max. emission wavelength ([4]; Methanol): 422 nm
Logarithm of the Extinction coefficient ([4]; Toluene): 4.95 M^-1 cm^-1
Max. absorption wavelength ([4]; Toluene): 420 nm
Max. emission wavelength ([4]; Toluene): 427 nm
Stokes shift [4]: 5-7 nm

Compound: 7-amino-4-methylcoumarin acetate
Fluorescence capacity (extinction coefficient x quantum yield) relative to the present inventions' compounds [5]: approximately one-quarter

Compound: O=C(O)CC1=C2Sc3cc(S(=O)(=O)O)ccc3N2[B-](F)(F)[n+]2c1sc1cc(S(=O)(=O)O)ccc12
Dimer by UV spectrum ([7]; HMPA): absence of dimer

Compound: CC1=CC(C)=[N+]2C1=Cc1c(C)c(S(=O)(=O)O)c(C)n1[B-]2(F)F [Bodipy-sulfonate, 4-Sulfonato-3,3'5,5'-Tetramethyl-2,2'-Pyrromethene-1,1'-Borondifluoride Complex]
RI (relative intensity) ([8]; Acetonitrile): 0.69
Extinction coefficient ([8]; Acetonitrile): 58.9 cm⁻¹ mM⁻¹
Max. absorption wavelength ([8]; Acetonitrile): 504 nm
Max. emission wavelength ([8]; Acetonitrile): 514 nm
RI (relative intensity) ([8]; Dioxane): 0.64
Extinction coefficient ([8]; Dioxane): 52.7 cm⁻¹ mM⁻¹
Max. absorption wavelength ([8]; Dioxane): 506 nm
Max. emission wavelength ([8]; Dioxane): 518 nm
RI (relative intensity) ([8]; Methanol): 1.00
Extinction coefficient ([8]; Methanol): 57.7 cm⁻¹ mM⁻¹
Max. absorption wavelength ([8]; Methanol): 500 nm
Max. emission wavelength ([8]; Methanol): 515 nm
RI (relative intensity) ([8]; Water): 0.67
Extinction coefficient ([8]; Water): 39.7 cm⁻¹ mM⁻¹
Max. absorption wavelength ([8]; Water): 494 nm
Max. emission wavelength ([8]; Water): 509 nm

Compound: CC1=CC(C)=[N+]2C1=Cc1c(C)cc(C)n1[B-]2(F)F [Bodipy, 3,3',5,5'-tetramethyl-2,2'-pyrromethene-1,1'-boron-difluoride]
RI (relative intensity) ([8]; Acetonitrile): 0.87
Extinction coefficient ([8]; Acetonitrile): 86.7 cm⁻¹ mM⁻¹
Max. absorption wavelength ([8]; Acetonitrile): 501 nm
Max. emission wavelength ([8]; Acetonitrile): 508 nm
RI (relative intensity) ([8]; Dioxane): 0.63
Extinction coefficient ([8]; Dioxane): 80.0 cm⁻¹ mM⁻¹
Max. absorption wavelength ([8]; Dioxane): 505 nm
Max. emission wavelength ([8]; Dioxane): 512 nm
RI (relative intensity) ([8]; Methanol): 1.00
Extinction coefficient ([8]; Methanol): 85.3 cm⁻¹ mM⁻¹
Max. absorption wavelength ([8]; Methanol): 501 nm
Max. emission wavelength ([8]; Methanol): 509 nm
RI (relative intensity) ([8]; Water): 0.48
Max. absorption wavelength ([8]; Water): 500 nm
Max. emission wavelength ([8]; Water): 508 nm
Maximum absorptive wavelength ([9]; aqueous media): 500 nm
Maximum emissive wavelength ([9]; aqueous media): 508 nm
Emission maximum ([9]; solvent not stated): 508 nm

Compound: O=C(Cc1ccc2c(c1)N1C(=Cc3oc4ccc(CC(=O)ON5C(=O)CCC5=O)cc4[n+]3[B-]1(F)F)O2)ON1C(=O)CCC1=O [Blue 1-OSu, disuccinimidyl benzoxazolylmethene borondifluoride complex]
Dimer by UV spectrum ([7]; DMF reaction mixture): presence of dimer

Now from value to compound, other results behind:

Maximum absorptive wavelength [6]: 512 nm
Maximum emissive wavelength [6]: 518 nm
Fluorescence (in words) [6]: intense green fluorescence
Compound: F[B-]1(F)N2C(=Cc3ccc4ccccc4[n+]31)C=Cc1ccccc12 [Example H, Bis-Quinolinemethene Borondifluoride]

Maximum absorptive wavelength [6]: 480 nm
Maximum emissive wavelength [6]: 492 nm
Fluorescence (in words) [6]: green fluorescence
Compound: F[B-]1(F)N2C(=Cc3ccc4ccccc4[n+]31)Sc1ccccc12 [Example I, 2(2'-Benzothiazolylmethene)Quinoline Borondifluoride]

Maximum absorptive wavelength [6]: 362 nm
Maximum emissive wavelength [6]: 386 nm
Fluorescence (in words) [6]: highly fluorescent
Compound: O=C(O)Cc1ccc2c(c1)N1C(=Cc3oc4ccc(CC(=O)O)cc4[n+]3[B-]1(F)F)O2 [Example C, Bis-carboxymethyl Benzoxazolylmethene Borondifluoride]

Maximum absorptive wavelength [6]: 416 nm
Compound: CC(=O)C1=C2Sc3ccccc3N2[B-](F)(F)[n+]2c1sc1ccccc12 [Example E]
Fluorescence (in words) [6]: less fluorescent than the base benzothiazole chromophore

Maximum absorptive wavelength [6]: 432 nm
Maximum emissive wavelength [6]: 460 nm
Fluorescence (in words) [6]: very fluorescent
Compound: N#CC1=C2C=CC=CN2[B-](F)(F)[n+]2ccccc21 [Example G]

Maximum absorptive wavelength [6]: 388 nm
Maximum emissive wavelength [6]: 414 nm
Fluorescence (in words) [6]: highly fluorescent
Compound: F[B-]1(F)N2C(=Cc3sc4ccccc4[n+]31)Oc1ccccc12 [Example D]

Maximum absorptive wavelength [6]: 430 nm
Maximum emissive wavelength [6]: 476 nm
Fluorescence (in words) [6]: high fluorescence
Compound: F[B-]1(F)N2C=CC=CC2=Cc2sc3ccccc3[n+]21 [Example F, Benzothiazolyl Pyridylmonomethine Borondifluoride]

Red shift at the maximum wavelength [1]: approximately 12 nm
Photofading rate compared with the corresponding Coumarin compound [1]: faded at a similar rate
Relative fluorescence intensity ([2]; Acetonitrile): 1.39
Relative fluorescence intensity ([2]; Chloroform): 1.27
Relative fluorescence intensity ([2]; Ethanol): 1.33
Relative fluorescence intensity ([2]; Ethyl Acetate): 1.20
Relative fluorescence intensity ([2]; Methanol): 1.35
Relative fluorescence intensity ([2]; Toluene): 1.42
Solubility data (qualitative) ([3]; Acetonitrile): sol.
Solubility data (qualitative) ([3]; Chloroform): sol.
Solubility data (qualitative) ([3]; Ethanol): sparingly
Solubility data (qualitative) ([3]; Ethyl Acetate): sol.
Solubility data (qualitative) ([3]; Methanol): sparingly
Solubility data (qualitative) ([3]; Toluene): sol.
Logarithm of the Extinction coefficient ([4]; Acetonitrile): 4.72 M^-1 cm^-1
Max. absorption wavelength ([4]; Acetonitrile): 358 nm
Max. emission wavelength ([4]; Acetonitrile): 385 nm
Logarithm of the Extinction coefficient ([4]; Chloroform): 4.72 M^-1 cm^-1
Max. absorption wavelength ([4]; Chloroform): 360 nm
Max. emission wavelength ([4]; Chloroform): 386 nm
Max. absorption wavelength ([4]; Ethanol): 358 nm
Max. emission wavelength ([4]; Ethanol): 386 nm
Logarithm of the Extinction coefficient ([4]; Ethyl Acetate): 4.74 M^-1 cm^-1
Max. absorption wavelength ([4]; Ethyl Acetate): 358 nm
Max. emission wavelength ([4]; Ethyl Acetate): 383 nm
Shape of emission spectrum relative to absorption spectrum [4]: appears to be much broader
Max. absorption wavelength ([4]; Methanol): 358 nm
Max. emission wavelength ([4]; Methanol): 385 nm
Logarithm of the Extinction coefficient ([4]; Toluene): 4.74 M^-1 cm^-1
Max. absorption wavelength ([4]; Toluene): 360 nm
Max. emission wavelength ([4]; Toluene): 392 nm
Stokes shift [4]: 28 nm
Compound: F[B-]1(F)N2C(=Cc3oc4ccccc4[n+]31)Oc1ccccc12 [Example B, Bis-benzoxazolylmethene Borondifluoride]
Resistance to photofading compared with the Coumarin dyes [1]: more resistant to photofading than the Coumarin dyes
Quantum yield compared with the unrigidized dye [10]: several fold greater than the unrigidized dye
